Here are results for three compounds from patent EP4623912A1, “A METHOD FOR DEFATTENING A STEATOTIC LIVER EX VIVO” (ETH Zurich, priority 2024, dated 2025).

The test system of assay [1] is ATGL. Nature of the assay: ATGL in HepG2 cells after 2-DG treatment. It is filed as cell-based, human. The method, then:
HepG2 cell type was cultured in RPMI medium with 10% FBS and 1% Pen/Strep on collagen-coated plates. Lipofectamine RNAiMAX reagent mediated siRNA (100 nM) was delivered to cells at the suspended state for 48 h. Different from HEK cells, it is not necessary to induce LDs via OA treatment in that there exist LDs in the HepG2 cell type at normal culture medium. The inventors treated HepG2 cells with 10 µM PF04620110 (DGAT1 inhibitor, Sigma) & PF-06424439 (DGAT2 inhibitor, Sigma) for 48 hours or with 5 µg/mL BFA (B5936, Sigma) for 6 hours to deplete LDs and intact Golgi in the HepG2 cell type respectively before glucose deprivation. […]
Total RNA was extracted from adipose depots, liver or in vitro cell cultures via Trizol reagent (Invitrogen) according to the manufacturer's instructions. […] Quantitative PCR was performed using KAPA SYBR FAST Universal kit (Roche, KK4618) on ViiA7 (Applied Biosystems) and the relative transcript levels were normalized to […] expression via ΔΔCt method. […]
(§1) Adipose depots, liver pieces, differentiated iBAs, HepG2, HEK293T and HEK293-AAV cell types were homogenized in RIPA buffer (50 mM Tris-HCl pH 7.4, 150 mM NaCl, 2 mM EDTA, 1.0% Triton X100, 0.5% sodium deoxycholate) with protease inhibitors (Complete, Roche) and phosphatase inhibitors (Halt phosphatase inhibitor cocktail, ThermoFisher). […] The concentration of WCE was determined by DC Protein Assay (Bio-Rad). […]

Assay [2] relates to C57BL/6N male mice. As to the kind of experiment: Glucose deprivation by 2-DG injection in mice. It is filed as in vivo, mouse. As for the experimental part:
All animal experiments were permitted by the Veterinary office of the Canton of Zurich. Both female and male mice were used in the experiments, and they were housed 2-5 littermates per cage in ventilated cages at standard housing conditions (22°C, 12 h reversed light/dark cycle, dark phase starting at 7 am) with normal chow diet (18% proteins, 4.5% fibers, 4.5% fat, 6.3% ashes, Provimi Kliba SA) and water. Health status of all the mouse lines were monitored regularly based on FELASA guidelines. 8-10 weeks old C57BL/6N male mice were fasted for 24 h or injected with 2-DG (2 g/kg BW) to induce glucose deprivation for different durations. Female ROSA26-LSL-spCas9 mice (The Jackson Lab strain) were intravenously injected with AAV8-U6-Pi4kb gRNAs-TBG-Cre, AAV8-U6-Sacm1l gRNAs-TBG-Cre, AAV8-U6-Cu/7 gRNAs-TBG-Cre and AAV8-U6-Fbxw8 gRNAs-TBG-Cre virus pools to express six gRNAs targeting individual gene and CAS9 in the liver at a dose of 3×10^11 genome copies/mouse. Two weeks later, livers were harvested for protein and RNA extraction after 6 hours fasting. To determine liver TG levels under NCD feeding condition, 4 weeks after AAV administration livers were harvested after 6 hours fasting. Also 4 weeks after AAV administration, the liver specific Cul7&Fbxw8 double knockout mice were injected with 2-DG (2 g/kg BW) to induce 1 hour glucose deprivation prior to liver harvesting for protein extraction.
Adipose depots, liver pieces, differentiated iBAs, HepG2, HEK293T and HEK293-AAV cell types were homogenized in RIPA buffer (50 mM Tris-HCl pH 7.4, 150 mM NaCl, 2 mM EDTA, 1.0% Triton X100, 0.5% sodium deoxycholate) with protease inhibitors (Complete, Roche) and phosphatase inhibitors (Halt phosphatase inhibitor cocktail, ThermoFisher). The homogenates were centrifuged at 12,000×g for 10 min at 4°C to remove debris and collect whole cell extract (WCE). The concentration of WCE was determined by DC Protein Assay (Bio-Rad). After boiling the sample with Lämmeli buffer at 95°C for 5 min, equal amount of proteins was loaded and separated on 12% SDS-PAGE. The proteins were transferred to nitrocellulose membrane and blotted by ATGL (1:1000, Cell Signaling), CGI-58 (1:1000, Proteintech), phospho-HSL(Ser660) (1:1000, Cell Signaling), PLIN1 (1:1000, Cell Signaling), HSL (1:1000, Cell Signaling), γ-tubulin (1:10000, Sigma), FLAG (1:10000, Sigma; 1:1000, Cell Signaling), MGL (1:1000, Abcam), HA (1:1000, Cell signaling), FBXW8 (1:100, Santa Cruz; 1:1000, Sigma), CUL7 (1:100, Santa Cruz), HSP90 (1:1000, Cell Signaling), K48 polyubiquitin (1:1000, Cell signaling), PI4KB (1:1000, Sigma), SACM1L (1:1000, Sigma), AKT1 (1:1000, Cell Signaling), phospho-AKT1(Ser473) (1:1000, Cell Signaling), TGN46 (1:1000, Abcam), MAOA (1:1000, Abcam), PLIN2 (1:1000, Abcam), PMP70 (1:10000, Sigma), Calnexin (1:1000, Cell Signaling), ARF1 (1:1000, Invitrogen), GAPDH (1:1000, Cell Signaling), RAB7 (1:1000, Cell Signaling), alpha 1 Sodium Potassium ATPase (1:1000, Abcam), Cleaved Caspase-3 (1:1000, Cell Signaling), phospho-AMPKα (Thr172) (1:1000, Cell Signaling), AMPKα (1:1000, Cell Signaling) and GM130 (1:1000, Proteintech). The primay antibody signal was visualized by HRP-conjugated secondary antibodies (1:5000, Millipore) and the ImageQuant system (GE Healthcare Life Sciences).
For mouse insulin measurement, plasma was collected at different timepoints after 2-DG administration in wild type mice. 5 µl plasma sample was used to determine insulin levels via Ultra-sensitive mouse insulin ELISA kit (Crystal Chem, Cat# 90080) according to the manufacturer's protocol. The absorbance was measured via Synergy Gen5 Platereader at 450/630 nm. 2 µl plasma sample was used to determine glucose levels via Glucose Assay Kit (Sigma, MAK263) according to the manufacturer's protocol. The absorbance was read at 570 nm in Synergy Gen5 Platereader.
Plasma collected from mice under different conditions was used to determine levels of lipolysis and liver injury. […]

Assay [3] has as its system ATGL. As to the kind of experiment: ATGL response to glucose deprivation in HepG2 cells after BFA treatment. It is filed as cell-based, human. To be noted: HepG2, 5 µg/mL BFA for 6 hours before glucose deprivation. As for the experimental part: HepG2 cell type was cultured in RPMI medium with 10% FBS and 1% Pen/Strep on collagen-coated plates. Lipofectamine RNAiMAX reagent mediated siRNA (100 nM) was delivered to cells at the suspended state for 48 h. Different from HEK cells, it is not necessary to induce LDs via OA treatment in that there exist LDs in the HepG2 cell type at normal culture medium. The inventors treated HepG2 cells with 10 µM PF04620110 (DGAT1 inhibitor, Sigma) & PF-06424439 (DGAT2 inhibitor, Sigma) for 48 hours or with 5 µg/mL BFA (B5936, Sigma) for 6 hours to deplete LDs and intact Golgi in the HepG2 cell type respectively before glucose deprivation. To deprive glucose in the HepG2 cell type, we either added 2-DG at indicated concentrations to the culture medium or refresh cells with RPMI medium containing different glucose concentrations prepared from the same RPMI medium (Gibco, 11879020).
as §1

The subject of assay [4] is ATGL. Nature of the assay: Block of proteasome mediated degradation, cellular ATGL protein. The format is cell-based. To be noted: proteasome blocked; Chloroquine (autophagy) had no such effect.
Where [5] appears, read: only 1 hour after 2-DG administration.

The structures appear in SMILES notation. Where a SMILES comes first, the peptide text is derived from it. The star is where a group is joined. Cbz = O=C(OCc1ccccc1)*

Turning to `O=CC[C@@H](O)[C@H](O)[C@H](O)CO` [2-DG, 2-Deoxy-D-glucose], in assay [1] (HepG2, 50 mM 2-DG (Fig. 2b)), the ATGL protein abundance entry was “strongly induced”. The ATGL transcript levels entry in assay [1] (HepG2, 2-DG treatment) is “without changing”. In addition, in assay [2] (2-DG 2 g/kg BW, 1 h, 6 h, 12 h (Fig. 1c)), the “lipolysis (plasma FFA levels)” value is reported as “significantly induced”. Also, the “ATGL levels in livers of wild-type mice” value in assay [2] (2-DG for 1 hour, not in Cul7 and Fbxw8 double knockout (Fig. 6c)) is listed as “upregulation”. Besides, in assay [2] (1 hour after 2-DG), the “ATGL protein levels in the liver and iBAT” value is reported as “increased”. Further, the “ATGL protein levels in the liver, iBAT, iWAT and gWAT” value in assay [2] (longer glucose deprivation (6 h, 12 h after 2-DG)) is recorded as “further accumulation”. In assay [2] (setting [5]), the “HSL phosphorylation in white adipose tissues” value is reported as “upregulation” and the plasma insulin levels entry was “reduction”.

For the compound `C[C@H]1CCC/C=C/[C@@H]2C[C@H](O)C[C@H]2[C@H](O)/C=C/C(=O)O1` [BFA, Brefeldin A], the “intracellular ATGL levels upon glucose deprivation” value in assay [3] is “failed to upregulate”.

Consider `CC(C)C[C@@H](C=O)NC(=O)[C@H](CC(C)C)NC(=O)[C@H](CC(C)C)NC(=O)OCc1ccccc1` [MG132] (Cbz-Leu-Leu-Leu-aldehyde), for which, in assay [4], the “cellular ATGL protein” value is “accumulation”.
